Tested on: Cynomolgus monkey corneal endothelial cells
Experiment: Immunostaining of Na+/K+-ATPase and ZO-1 in monkey corneal endothelial cells (Example 3)
Assay type: cell-based
Conditions: monkey CEC treated with SB431542; control lost its staining
Description: Phosphatase inhibitor cocktail 2 (Sigma-Aldrich) and protease inhibitor cocktail (Nacalai Tesque, Inc., Kyoto city) were added to the aforementioned RIPA buffer. The obtained cell lysate was centrifuged (15,000 rpm, 10 minutes) where the supernatant thereof was collected, and the protein was quantitated using a BCA PROTEIN ASSAY KIT (PIERCE (catalog number: 23227)). Dissolution was performed using 100 μl dissolution buffer (Laemmli sample buffer) including 5 mM 2-mercaptoethanol (Nacalai Tesque (catalog number: 21418-42)). • Immunostaining: after washing cells which had reached confluency with PBS (Nissui, catalog number: 5913), the cells were fixed for 10 minutes with iced ethanol (Nacalai Tesque, catalog number: 14713-95) and acetic acid (WAKO catalog number:017-00256) (95:5).
Blocking was performed via incubation for 1 hour with 0.1% (vol/vol) polyethylene sorbitan monolaurate (Nacalai Tesque, catalog number: 28353-85) (TBS-T) and Tris buffered saline (10 mM Tris-HCl, pH7.4; 100 mM NaCl) with 10% fetal bovine serum. […]
Next, reaction was allowed for 1 hour at a room temperature with ALEXA FLUOR 488 (INVITROGEN (catalog number: A21206)) and ALEXA FLUOR 594 (INVITROGEN (catalog number: A21203)), diluted with TBS-T by 1,000 fold. […] After washing, bands were detected using an ECL-ADVAVCE Western Blotting Detection Kit (GE healthcare Japan (catalog number: RPN2135V)). […]

NC(=O)c1ccc(-c2nc(-c3ccc4c(c3)OCO4)c(-c3ccccn3)[nH]2)cc1 [SB431542]
plasma membrane staining of Na+/K+-ATPase and ZO-1 (immunostaining): characteristic plasma membrane staining of Na^+/K^+-ATPase and ZO-1
